The values below come from US20240307362A1 (priority 2019, published 2024).

Like-named read-outs stand apart in the source and are kept apart here.

The test system of one test is Ba/F3-EGFR-WT. Put plainly: Ba/F3 cell survival assay, WT EGFR. The test is classed as cell-based. Here is the method:
(§1) 293T cells from ATCC were transfected with pBABEpuro expression constructs for WT EGFR or EGFR-insSVD and pCL-Eco packaging vector using Fugene-6 transfection reagent from Promega. Plates were incubated at 37° C. for 48 h. Retrovirus was harvested by filtering the media supernatant through a 0.45 μm filter.
(§2) Ba/F3 cells purchased from DSMZ were grown in RPMI+10% FBS+10 ng/mL IL-3 and infected with filtered retroviral supernatant at a 1:2 dilution. Polybrene was added to a concentration of 8 μg/mL, plates were spun for 90 min, and incubated overnight at 37° C. 2 μg/mL puromycin was added to the infected cells 24 h after infection and cells were continually grown in the presence of puromycin and 10 ng/mL IL-3. Following stably expressing Ba/F3 cell lines were generated: Ba/F3-EGFR-WT, Ba/F3-EGFR-insSVD, (Ba/F3-vector-control).
The cells ectopically expressing WT EGFR or EGFR-insSVD were plated with 10 ng/mL Millipore Culture grade EGF. The cells ectopically expressing pBABEpuro empty vector were plated with 10 ng/mL IL-3.
100 nL of compound was added to each well using a 100 nL pin head, and plates were incubated at 37° C. for 48 h.
Cell viability was measured by adding 20 μL of Cell Titer-Glo Luminescent Cell Viability Reagent diluted 1:3 in PBS. Plates were sealed with Perkin Elmer Top-Seal, inverted several times to mix, and immediately centrifuged at 1000 rpm for 2 min.

Another test has as its system Ba/F3-EGFR-insSVD. Briefly: Ba/F3 cell survival assay, EGFR-insSVD. In kind it is cell-based. Here is the method:
as §1, §2
For cell survival assays, Ba/F3 cells were grown to a density of 1-2 million cells per mL, spun down and resuspended in media without IL-3, and replated at a concentration 200,000-500,000 cells per mL. The cells ectopically expressing WT EGFR or EGFR-insSVD were plated with 10 ng/mL Millipore Culture grade EGF. The cells ectopically expressing pBABEpuro empty vector were plated with 10 ng/mL IL-3.
2 days later, cells were plated in 50 μL in a 384 well plate at a concentration of 4000 cells per well for cells assayed in the absence of IL-3 and 2000 cells per well for cells assayed in the presence of IL-3. 100 nL of compound was added to each well using a 100 nL pin head, and plates were incubated at 37° C. for 48 h.
Cell viability was measured by adding 20 μL of Cell Titer-Glo Luminescent Cell Viability Reagent diluted 1:3 in PBS. Plates were sealed with Perkin Elmer Top-Seal, inverted several times to mix, and immediately centrifuged at 1000 rpm for 2 min. Plates were incubated in low light conditions for 8-10 min and luminescence was measured.

The target of a further test is human Bub1 (Homo sapiens (Human), UniProt O43683). Briefly: Bub1 high ATP kinase assay (TR-FRET). The test is classed as biochemical. From the text:
Bub1-inhibitory activity of compounds of the present invention at a high ATP concentration was quantified employing the Bub1 TR-FRET high ATP kinase assay as described in the following paragraphs.
N-terminally His6-tagged recombinant catalytic domain of human Bub1 (amino acids 704-1085), expressed in insect cells (Hi5) and purified by Ni-NTA affinity chromatography and subsequent size exclusion chromatography, was used as enzyme.
On the technique in general: In TR-FRET formats the signal depends on donor and acceptor labels being close together.

The mark [1] stands for this setting: Mus musculus, BaF3, 48 h, read-out: BA/F3 (wild type) IC50, cell viability, Cell Titer-Glo, 48 h, with 10 ng/mL EGF, without IL-3.
Where [2] appears, read: Mus musculus, BaF3, 48 h, read-out: BA/F3 (insSVD) IC50, cell viability, Cell Titer-Glo, 48 h, with 10 ng/mL EGF, without IL-3.
Setting [3] is: read-out: Bub1 high ATP (2 mM) IC50, 2 mM ATP.
The mark [4] stands for this setting: read-out: BA/F3 (wild type) IC50, cell viability, Cell Titer-Glo, 48 h, with 10 ng/mL EGF, without IL-3.
[5] abbreviates: read-out: BA/F3 (insSVD) IC50, cell viability, Cell Titer-Glo, 48 h, with 10 ng/mL EGF, without IL-3.
Setting [6] is: Bub1 high ATP (2 mM) IC50, 2 mM ATP.

human Bub1, sequence (O43683 704-1085): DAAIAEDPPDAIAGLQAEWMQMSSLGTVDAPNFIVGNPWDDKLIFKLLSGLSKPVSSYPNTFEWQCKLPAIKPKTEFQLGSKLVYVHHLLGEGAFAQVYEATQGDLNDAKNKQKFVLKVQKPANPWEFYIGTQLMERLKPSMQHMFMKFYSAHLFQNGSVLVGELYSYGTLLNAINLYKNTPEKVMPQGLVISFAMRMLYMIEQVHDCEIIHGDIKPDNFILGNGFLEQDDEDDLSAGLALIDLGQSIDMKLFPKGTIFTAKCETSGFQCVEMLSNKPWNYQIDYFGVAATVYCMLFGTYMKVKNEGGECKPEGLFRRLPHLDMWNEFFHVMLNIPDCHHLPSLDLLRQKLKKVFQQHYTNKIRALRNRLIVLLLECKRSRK

`COc1c(F)cccc1Nc1c(-c2ccncc2OCCC2CCO2)[nH]c2c1C(=O)NCC2` (racemic) [Example 43, 3-(3-fluoro-2-methoxyanilino)-2-{3-[2-(oxetan-2-yl)ethoxy]pyridin-4-yl}-1,5,6,7-tetrahydro-4H-pyrrolo[3,2-c]pyridin-4-one]: the IC50 in the test on Ba/F3-EGFR-WT (setting [1]) worked out at 262 nM; in the test on Ba/F3-EGFR-insSVD (setting [2]), 11.5 nM; at human Bub1 (setting [3]), 3500 nM.
As for `COc1c(Cl)cccc1Nc1c(-c2ccncc2OCC2(C)CCO2)[nH]c2c1C(=O)NCC2` (racemic) [Example 46, 3-(3-chloro-2-methoxyanilino)-2-{3-[(2-methyloxetan-2-yl)methoxy]pyridin-4-yl}-1,5,6,7-tetrahydro-4H-pyrrolo[3,2-c]pyridin-4-one], the IC50 in the test on Ba/F3-EGFR-WT (setting [1]) was 966 nM; in the test on Ba/F3-EGFR-insSVD (setting [2]) it was 67 nM; at human Bub1 (setting [3]), 10200 nM.
On the same counts, the results for `COc1c(Cl)cccc1Nc1c(-c2ccncc2OCC2OCC2(C)C)[nH]c2c1C(=O)NCC2` (racemic) [Example 49, 3-(3-chloro-2-methoxyanilino)-2-{3-[(3,3-dimethyloxetan-2-yl)methoxy]pyridin-4-yl}-1,5,6,7-tetrahydro-4H-pyrrolo[3,2-c]pyridin-4-one] are 426 nM, 12.5 nM and above 20000 nM.
The corresponding values for `COc1c(F)cccc1Nc1c(-c2ccncc2OCC2OCC2(C)C)[nH]c2c1C(=O)NCC2` (racemic) [Example 52, 2-{3-[(3,3-dimethyloxetan-2-yl)methoxy]pyridin-4-yl}-3-(3-fluoro-2-methoxyanilino)-1,5,6,7-tetrahydro-4H-pyrrolo[3,2-c]pyridin-4-one] are 535 nM, 38.1 nM and above 20000 nM.
On the same counts, the results for `Cc1cccc(Nc2c(-c3ccncc3OCC3OCC3(C)C)[nH]c3c2C(=O)NCC3)c1Cl` (racemic) [Example 58, 3-(2-chloro-3-methylanilino)-2-{3-[(3,3-dimethyloxetan-2-yl)methoxy]pyridin-4-yl}-1,5,6,7-tetrahydro-4H-pyrrolo[3,2-c]pyridin-4-one] are 1430 nM, 106 nM and above 20000 nM.
For the compound `COc1c(Cl)cc(F)cc1Nc1c(-c2ccncc2OCC2CCO2)[nH]c2c1C(=O)NCC2` (racemic) [Example 65, 3-(3-chloro-5-fluoro-2-methoxyanilino)-2-(3-{[oxetan-2-yl]methoxy}pyridin-4-yl)-1,5,6,7-tetrahydro-4H-pyrrolo[3,2-c]pyridin-4-one], the IC50 was 911 nM in the test with Ba/F3-EGFR-WT (setting [1]), 89.8 nM with Ba/F3-EGFR-insSVD (setting [2]) and above 20000 nM on human Bub1 (setting [3]).
As for `CC1(COc2cnccc2-c2[nH]c3c(c2Nc2cccc(Cl)c2OC(F)F)C(=O)NCC3)CCO1` (racemic) [Example 74, 3-[3-chloro-2-(difluoromethoxy)anilino]-2-(3-{[2-methyloxetan-2-yl]methoxy}pyridin-4-yl)-1,5,6,7-tetrahydro-4H-pyrrolo[3,2-c]pyridin-4-one], the IC50 in the test on Ba/F3-EGFR-WT (setting [1]) was 1250 nM; in the test on Ba/F3-EGFR-insSVD (setting [2]) it was 134 nM; on human Bub1 (setting [3]), above 20000 nM.
In the case of `COc1c(Br)cccc1Nc1c(-c2ccncc2OCC2CCO2)[nH]c2c1C(=O)NCC2` (single isomer, unassigned) [Example 34, 3-(3-bromo-2-methoxyanilino)-2-{3-[(oxetan-2-yl)methoxy]pyridin-4-yl}-1,5,6,7-tetrahydro-4H-pyrrolo[3,2-c]pyridin-4-one], the IC50 was 519 nM in the test on Ba/F3-EGFR-WT (setting [4]), 20.4 nM in the test with Ba/F3-EGFR-insSVD (setting [5]) and above 20000 nM against human Bub1 (setting [6]).
For `COc1c(Br)cccc1Nc1c(-c2ccncc2OCC2CCO2)[nH]c2c1C(=O)NCC2` (single isomer, unassigned) [Example 35, 3-(3-bromo-2-methoxyanilino)-2-{3-[(oxetan-2-yl)methoxy]pyridin-4-yl}-1,5,6,7-tetrahydro-4H-pyrrolo[3,2-c]pyridin-4-one], the IC50 with Ba/F3-EGFR-WT (setting [4]) is 1360 nM; with Ba/F3-EGFR-insSVD (setting [5]), 206 nM; against human Bub1 (setting [6]), 4970 nM.
The corresponding values for `Cc1c(Cl)cc(F)cc1Nc1c(-c2ccncc2OCC2CCO2)[nH]c2c1C(=O)NCC2` (single isomer, unassigned) [Example 41, 3-(3-chloro-5-fluoro-2-methylanilino)-2-{3-[(oxetan-2-yl)methoxy]pyridin-4-yl}-1,5,6,7-tetrahydro-4H-pyrrolo[3,2-c]pyridin-4-one] are 1780 nM, 346 nM and 6350 nM.
On the same counts, the results for `Cc1c(Cl)cc(F)cc1Nc1c(-c2ccncc2OCC2CCO2)[nH]c2c1C(=O)NCC2` (single isomer, unassigned) [Example 42, 3-(3-chloro-5-fluoro-2-methylanilino)-2-{3-[(oxetan-2-yl)methoxy]pyridin-4-yl}-1,5,6,7-tetrahydro-4H-pyrrolo[3,2-c]pyridin-4-one] are 553 nM, 72.5 nM and above 20000 nM.
For `COc1c(F)cccc1Nc1c(-c2ccncc2OCCC2CCO2)[nH]c2c1C(=O)NCC2` (single isomer, unassigned) [Example 44, 3-(3-fluoro-2-methoxyanilino)-2-{3-[2-(oxetan-2-yl)ethoxy]pyridin-4-yl}-1,5,6,7-tetrahydro-4H-pyrrolo[3,2-c]pyridin-4-one], the IC50 was 903 nM in the test on Ba/F3-EGFR-WT (setting [1]), 34.1 nM in the test with Ba/F3-EGFR-insSVD (setting [2]) and above 20000 nM against human Bub1 (setting [6]).
Consider `COc1c(F)cccc1Nc1c(-c2ccncc2OCCC2CCO2)[nH]c2c1C(=O)NCC2` (single isomer, unassigned) [Example 45, 3-(3-fluoro-2-methoxyanilino)-2-{3-[2-(oxetan-2-yl)ethoxy]pyridin-4-yl}-1,5,6,7-tetrahydro-4H-pyrrolo[3,2-c]pyridin-4-one], for which the IC50 in the test on Ba/F3-EGFR-WT (setting [4]) is 746 nM; in the test with Ba/F3-EGFR-insSVD (setting [5]) it was 46.4 nM; against human Bub1 (setting [6]) it was 12700 nM.
With `O=C1NCCc2[nH]c(-c3ccncc3OCCC3CCO3)c(Nc3cccc(Cl)c3Cl)c21` (single isomer, unassigned) [Example 63, 3-(2,3-dichloroanilino)-2-(3-{2-[oxetan-2-yl]ethoxy}pyridin-4-yl)-1,5,6,7-tetrahydro-4H-pyrrolo[3,2-c]pyridin-4-one], the IC50 with Ba/F3-EGFR-WT (setting [1]) worked out at 567 nM; in the test on Ba/F3-EGFR-insSVD (setting [2]), 31.4 nM; on human Bub1 (setting [3]), 5510 nM.
Consider `O=C1NCCc2[nH]c(-c3ccncc3OCCC3CCO3)c(Nc3cccc(Cl)c3Cl)c21` (single isomer, unassigned) [Example 64, 3-(2,3-dichloroanilino)-2-(3-{2-[oxetan-2-yl]ethoxy}pyridin-4-yl)-1,5,6,7-tetrahydro-4H-pyrrolo[3,2-c]pyridin-4-one], for which the IC50 in the test with Ba/F3-EGFR-WT (setting [4]) was 726 nM; in the test on Ba/F3-EGFR-insSVD (setting [5]), 23 nM; at human Bub1 (setting [6]) it was 5380 nM.
The corresponding values for `COc1c(Cl)cc(F)cc1Nc1c(-c2ccncc2OCC2CCO2)[nH]c2c1C(=O)NCC2` (single isomer, unassigned) [Example 66, 3-(3-chloro-5-fluoro-2-methoxyanilino)-2-(3-{[oxetan-2-yl]methoxy}pyridin-4-yl)-1,5,6,7-tetrahydro-4H-pyrrolo[3,2-c]pyridin-4-one] are 1500 nM, 140 nM and above 20000 nM.
On the same counts, the results for `CC1(C)COC1COc1cnccc1-c1[nH]c2c(c1Nc1cccc(Cl)c1OC(F)F)C(=O)NCC2` (single isomer, unassigned) [Example 72, 3-[3-chloro-2-(difluoromethoxy)anilino]-2-(3-{[3,3-dimethyloxetan-2-yl]methoxy}pyridin-4-yl)-1,5,6,7-tetrahydro-4H-pyrrolo[3,2-c]pyridin-4-one] are 2740 nM, 436 nM and above 20000 nM.
